This note sets out measurements from article PMC6290556, “1,4-Disubstituted Thiosemicarbazide Derivatives are Potent Inhibitors of Toxoplasma gondii Proliferation” (Molecules, 2014).

The subject of data set [1] is Gram-positive and Gram-negative bacterial strains. Put plainly: antibacterial assay (disc diffusion / agar dilution). The class given is cell-based. To be noted: even at high concentrations. The source says: The following microorganisms were used in this study: Staphylococcus aureus (ATCC 25923, ATCC 6538, ATCC 29213, NCTC 4163), Staphylococcus epidermidis ATCC 12228, Bacillus subtilis ATCC 6633, Bacillus cereus ATCC 11778, Micrococcus luteus (ATCC 9341, ATCC 10240), Escherichia coli (ATCC 10538, ATCC 25922, NCTC 8196), […] NCTC 4635, Pseudomonas aeruginosa (ATCC 15442, ATCC 27853, NCTC 6749), and Bordetella bronchiseptica ATCC 4617. Initially, antibacterial activity of thiosemicarbazide derivatives was screened on the basis of growth inhibition zone (giz) utilizing the disc diffusion method, according to the Clinical and Laboratory Standards Institute guidelines. For compounds showing the inhibitory effect on the growth of tested bacteria, monitored as an appearance of giz, the minimal inhibitory concentrations (MICs) were determined using agar dilution method, according to the Clinical and Laboratory Standards Institute guidelines. The minimal inhibitory concentrations (MICs) were defined as the lowest concentration of the compound preventing growth of the tested microorganism. In both methods, recommended Mueller-Hinton II agar medium (Becton Dickinson, Heidelberg, Germany) was used. Solutions containing the tested agents were prepared in methanol or DMSO. Ciprofloxacin was used as control antimicrobial agent.
In general terms: A growth-free zone around the sample is the usual read-out of agar diffusion tests.

A further data set concerns T. gondii RH strain. The data set can be described thus: quantitative real-time PCR (B1 gene) of T. gondii in infected L929 cells. The format is cell-based, Toxoplasma gondii. To be noted: assay B qRT-PCR, L929 host cells. The method, then: T. gondii genomic DNA was isolated from the tachyzoites of RH strain with Wizard® SV Genomic DNA Purification System (Promega, Madison, WI, USA) according to the manufacturer’s instruction. The DNA concentration and purity were measured using a NanoPhotometer (Implen, München, Germany), while the integrity of the extracted DNA was tested using an ethidium bromide-stained agarose gel. DNA was used for the detection and quantitationof T. gondii in analyzed samples and it was stored at −20 °C until use.
A quantitative real-time PCR (qRT-PCR) assay, targeting B1 gene was performed to detect and to quantitate T. gondii in analyzed samples (1g, 2b, 2m, 3d, 3l and sulphadiazine) according to the modified protocol of Wahab et al.. […] Amplification was carried out on a 7900HT real-time PCR system (Applied Biosystems, Carlsbad, CA, USA). The reaction mixtures (25 µL) consisted of 1x TaqMan PCR master mix supplemented with ROX (Applied Biosystems), 300 nM probe, 900 nM of each primer and 2 µL of template DNA. For quantification a standard curve was constructed using 10-fold serial dilutions of DNA extracted from a known number of T. gondii. The cycling parameters were: 50 °C for 2 min, initial activation at 95 °C for 10 min, and 45 two-step cycles of 95 °C for 15 s and 60 °C for 1 min. All samples were analyzed in triplicate.

The nature of data set [2]: MTT cell viability assay (ISO 10993-5). The class given is cell-based, mouse. To be noted: mouse, L929 mouse fibroblast cells, 24 h, ± SD. How it is done: (§1) Cell line L929 (ATTC® Catalog No. […] The MTT assay was used according to international standards: ISO 10993-5:2009(E), Biological evaluation of medical devices, Part 5: Tests for in vitro cytotoxicity. […] Then, 1 mg/mL MTT (50 μL/well) was added to each well and incubated at 37 °C, 10% CO2 for 2 h. Mitochondrial dehydrogenases of viable cells reduced the yellowish water-soluble MTT to water-insoluble formazan crystals, which were solubilized with dimethyl sulfoxide (DMSO). The cell culture medium was aspirated cautiously, after which 150 μL DMSO was added to each well and mixed thoroughly. Optical density (OD) was read on the ELISA reader (Multiskan EX, Labsystems, Vienna, VA, USA) at 550 nm. […] All experiments were performed in triplicate.
Background: Tetrazolium dyes change colour on reduction, which living cells bring about.

In another data set the test system is L929 cells. The data set can be described thus: MTT cell viability assay (ISO 10993-5). The format is cell-based, mouse. To be noted: for CC30 (concentration required for 30% proliferation inhibition in vitro): L929 cells; for viability of L929 cells: 24 h, ± SD. How it is done: as §1
In data set [3] the test system is T. gondii RH strain tachyzoites. Put plainly: [3H]uracil incorporation assay of T. gondii proliferation in L929 host cells. The class given is cell-based, Toxoplasma gondii. To be noted: assay A [3H]uracil incorporation; for intensity of T. gondii proliferation: vs untreated blank. How it is done: In the next step of our studies, the prepared 1,4-disubstituted thiosemicarbazides (series 1–3) were used to assess the inhibition of T. gondii growth in vitro. For this purpose, intracellular parasites (tachyzoites) of RH strain were incubated with different concentrations of the thiosemicarbazides ranging from 1 to 100 µg/mL. Inhibition of the parasite growth was monitored by measuring the specific incorporation of [^3H]uracil in the parasite’s nucleic acids.
The tachyzoites of T. gondii strain RH – intraspecies type I (ATCC_ Number 50174™) were maintained through passages on female C57BL/6 (H-2^b) and BALB/c (H-2^d) mice with genetically determined high and low susceptibility (respectively) to T. gondii infection (10–12 weeks old). Tachyzoites washed out from the peritoneum cavity were once expanded in vitro on L929 cells.
L929, (2 × 10^4 cells/100 µL/well) were grown in complete medium (IMDM) on 96-well plates. After 24 h incubation, a medium was removed and then T. gondii RH tachyzoites, suspended in culture medium supplemented with 1.0, 5.0, 10.0, 50.0 and 100.0 μg/mL 1,4-disubstituted thiosemicarbazides (1g, 2b, 2m, 3d, 3l) and as a control-sulfadiazine, were added (2 × 10^5 tachyzoites/200 µL/well) to the cell monolayers. After subsequent 48 h incubation 1 µCi/well of [^3H] uracil (Moravek Biochemicals Inc., Brea, CA, USA) was applied to each microculture for further 18–20 h. The amount of the isotope incorporated into the parasite nucleic acid pool, corresponding to the parasite growth, was measured by liquid scintillation counting with 1450 Microbeta Plus Liquid Scintillation Counter (Wallac Oy, Turku, Finland).

Data set [4] has the same test system. Described as above. The class given is cell-based. To be noted: Toxoplasma gondii, L929, read-out: IC50 (50% of T. gondii proliferation inhibition in vitro).
Data set [5] can be described thus: solubility under the anti-T. gondii protocol conditions. The class given is physicochemical. To be noted: anti-T. gondii assay protocol, 1 to 100 µg/mL. How it is done:
In the next step of our studies, the prepared 1,4-disubstituted thiosemicarbazides (series 1–3) were used to assess the inhibition of T. gondii growth in vitro. For this purpose, intracellular parasites (tachyzoites) of RH strain were incubated with different concentrations of the thiosemicarbazides ranging from 1 to 100 µg/mL. Inhibition of the parasite growth was monitored by measuring the specific incorporation of [^3H]uracil in the parasite’s nucleic acids. Unfortunately, among the 15 compounds tested, derivatives 1a–1e, 1k, 1l, 2f, 2i, 2j, and 3h were insoluble under the protocol conditions and, consequently, they were eliminated from further experiments. The percentages of the parasite growth inhibition in L929 cells by the remaining compounds 1g, 2b, 3d, 3l and the control drug-sulfadiazine as well as IC50 values are shown in Table 1.
A preliminary assumption was thus put forward that the presence of both the five-membered hetaryl moiety at N1 position and the aryl moiety at N4 position of thiosemicarbazide core are the key functionalities required for potent anti-T. gondii activity of thiosemicarbazide-based compounds, which may be directly linked with the electronic structure of the molecule. In order to verify the preliminary hypothesis, 4-ethyl-1-(thiophen-2-yl)carbonylthiosemicarbazide (1m), 4-cyclohexyl-1-(thiophen-2-yl)carbonylthiosemicarbazide (1n), and 4-ethyl-1-(2-methylfuran-3-yl)carbonylthio-semicarbazide (2m) were synthesized and their bioactivity was tested. Unfortunately, derivatives 1m and 1n were insoluble under the protocol conditions and, consequently, they were eliminated from further experiments. […] The assumption of the existence of the relationship between the anti-T. gondii activity of the studied thiosemicarbazides and their molecular structure was also confirmed based on DFT calculations. Figure 3 illustrates the electrostatic potential mapped on the density surface using the Gaussview program. Neutral fragments are characterized by the green color of the surface. The negative charge is represented by red, while the positive charge is marked in blue. If compound 1g is excluded from the consideration, the biological activity correlates well with the dipole moment of the molecule. In this series it seems that the activity depends on the bimodal partial negative charge developed on the carbonyl oxygen and another moiety on the same side of the molecule (a sulfur atom in 2b and 3d). Its low value in 3l and lack in 2m may be responsible for the lower activity. […] It contains, however, two partial negative charge centers as the series discussed above and an additional such center on the fluorine atom. Comparison of the biological activity of 1g and 2m seems to indicate the crucial role of the second negative charge density on the top of the molecule on a moiety other than the carbonyl oxygen. Another observation that comes from the analysis of the presented structures is that the biological activity is pronounced when the methyl group of the five-membered ring is directed away from the carbonyl group.

Converted amounts (≈) assume the structure as drawn. Bounds are passed on as bounds.

What is called viability is the share of living cells, or the viability signal relative to a control. Read a low viability as a greater loss of cells. In the case of `Cc1ccccc1NC(=S)NNC(=O)c1ccoc1C` [Compound 2b], the “growth-inhibiting effect on bacterial strains” value in data set [1] is “no growth-inhibiting effect”. For the same compound, the “intensity of T. gondii proliferation” value in the data set with T. gondii RH strain (50 µg/mL) is recorded as 41.37 ± 9.98 %; in the data set on T. gondii RH strain (100 µg/mL), 7.29 ± 1.56 %; in data set [3] (1 µg/mL), 98.24 ± 23.83%; in data set [3] (5 µg/mL), 107.95 ± 24.88%; in data set [3] (10 µg/mL), 112.25 ± 22.91 %; in data set [3] (50 µg/mL), 58.78 ± 11.49 %. The “intensity of T. gondii proliferation” value in data set [3] (100 µg/mL) is on record as 8.10 ± 2.78 %. In addition, in data set [2] (1 µg/mL), the viability at 24 h, 1 µg/mL is 95.3 ± 9.52%. The compound further showed a viability at 24 h, 5 µg/mL in data set [2] (5 µg/mL) of 94 ± 1.78%. In data set [2] (10 µg/mL), the viability at 24 h, 10 µg/mL turned out to be 91.9 ± 5.21%. In data set [2] (50 µg/mL), this compound gave a viability at 24 h, 50 µg/mL of 84.5 ± 1.43%. For the same compound, in data set [2] (100 µg/mL), the viability at 24 h, 100 µg/mL was determined as 78.2 ± 1.61%. This compound also yielded a viability at 24 h, 500 µg/mL in data set [2] (500 µg/mL) of 30.3 ± 0.86%. Also, the “CC30 (concentration required for 30% proliferation inhibition in vitro)” value with L929 cells worked out at 187.51 µg/mL. The IC50 in data set [4] is 59 µg/mL (≈ 204 µM).
For orientation: melting point means the temperature of the solid-liquid transition. `Cc1ccccc1NC(=S)NNC(=O)c1cccs1` [Compound 1b, 4-(2-Methylphenyl)-1-(thiophen-2-yl)carbonylthiosemicarbazide] returned a melting point of 155 to 157 °C.
Same read-out and setting: as for `Cc1cccc(NC(=S)NNC(=O)c2cccs2)c1` [Compound 1e, 4-(3-Methylphenyl)-1-(thiophen-2-yl)carbonylthiosemicarbazide], the figure is 188 to 190 °C.
As to `O=C(NNC(=S)NC1CCCCC1)c1cccs1` [Compound 1n, 4-cyclohexyl-1-(thiophen-2-yl)carbonylthiosemicarbazide], the “solubility under the protocol conditions” value in data set [5] is on record as “insoluble”.
On the same count and under the same terms, in the case of `Cc1nnsc1C(=O)NNC(=S)Nc1ccc(Cl)cc1` [Compound 3h] it was “insoluble”; in that of `Cc1occc1C(=O)NNC(=S)Nc1ccc(Br)cc1` [Compound 2i], “insoluble”; in that of `O=C(NNC(=S)Nc1ccc([N+](=O)[O-])cc1)c1cccs1` [Compound 1k], “insoluble”.
“4-ethyl-1-(2-methylfuran-3-yl)carbonylthio-semicarbazide [Compound 2m]”: the “growth-inhibiting effect on bacterial strains” value in data set [1] is on record as “no growth-inhibiting effect”. The “intensity of T. gondii proliferation” value with T. gondii RH strain (50 µg/mL) is listed as 51.03 ± 7.02 %; in the data set with T. gondii RH strain (100 µg/mL) it was 53.03 ± 9.87 %; in data set [3] (1 µg/mL) it was 98.00 ± 19.53%; in data set [3] (5 µg/mL), 75.74 ± 14.62%; in data set [3] (10 µg/mL) it was 60.61 ± 9.56 %; in data set [3] (50 µg/mL), 66.49 ± 11.38 %. The “intensity of T. gondii proliferation” value in data set [3] (100 µg/mL) is on record as 57.59 ± 15.02 %. Also, the “viability of L929 cells” value is listed as 104.05 ± 0.12% in the data set on L929 cells (1 µg/mL); 94.44 ± 2.62% in the data set with L929 cells (5 µg/mL); 94.05 ± 5.13% with L929 cells (10 µg/mL); 90.49 ± 2.99 % in the data set on L929 cells (50 µg/mL); 92.17 ± 2.31 % with L929 cells (100 µg/mL); 80.40 ± 2.74 % in the data set on L929 cells (500 µg/mL). For the same compound, in the data set on L929 cells, the “CC30 (concentration required for 30% proliferation inhibition in vitro)” value is listed as over 500 µg/mL. For the same compound, the “IC50 (50% of T. gondii proliferation inhibition in vitro)” value in data set [3] worked out at 191.04 µg/mL.
In the case of `CCN=C(S)NNC(=O)c1cccs1` [Compound 1m, 4-ethyl-1-(thiophen-2-yl)carbonylthiosemicarbazide], in data set [5], the “solubility under the protocol conditions” value was “insoluble”.
The same measure, in the same setting: in the case of `O=C(NNC(=S)Nc1ccc(F)cc1F)c1cccs1` [Compound 1l] it was “insoluble”.
Regarding `Cc1ccc(NC(=S)NNC(=O)c2ccoc2C)cc1` [Compound 2f], in data set [5], the “solubility under the protocol conditions” value is “insoluble”.
The same measure, in the same setting: as for `Cc1occc1C(=O)NNC(=S)Nc1ccc(I)cc1` [Compound 2j], the entry is “insoluble”.
